Assay: logP determination by HPLC on reversed-phase column (C 18), EEC Directive 79/831 Annex V.A8
Assay type: physicochemical
Conditions: reversed-phase C 18, 43° C., acidic range pH 2.7, 0.1% aqueous formic acid/acetonitrile

SMILES | log P
COCCn1c(=O)c2sc3c(=O)n(CCOC)c(=O)c3sc2c1=O [Compound 12, 2,6-Bis(2-methoxyethyl)-1H,5H-[1,4]dithiino[2,3-c:5,6-c]dipyrrole-1,3,5,7(2H,6H)-tetrone] | log P = 2.55
CC(C(=O)O)n1c(=O)c2sc3c(=O)n(C(C)C(=O)O)c(=O)c3sc2c1=O (centres unmarked) [Compound 24, 2,2′-(1,3,5,7-Tetraoxo-1,3,5,7-tetrahydro-2H,6H-[1,4]dithiino[2,3-c:5,6-c]dipyrrole-2,6-diyl)dipropanoic acid] | log P = 1.76

From patent US8865759B2, “Use of dithiine-tetracarboximides for controlling phytopathogenic fungi” (priority 2008, dated 2014)
